Measured values reported in BigSolDB 2.1.

CCOc1nc2cccc(C(=O)OC(C)OC(=O)OC3CCCCC3)c2n1Cc1ccc(-c2ccccc2-c2nn[nH]n2)cc1 (stereo not given)
solubility (mole fraction)
Details | in 2-butanone | in acetone | in acetonitrile | in ethanol | in isopropanol | in n-propanol
278.15 K | 0.00575 | 0.00383 | 0.00026 | 0.00055 | 0.00026 | 0.00062
283.15 K | 0.00653 | 0.00467 | 0.00033 | 0.00066 | 0.00037 | 0.00079
288.15 K | 0.00749 | 0.00566 | 0.00044 | 0.00086 | 0.00052 | 0.00098
293.15 K | 0.0086 | 0.00673 | 0.00058 | 0.00103 | 0.0007 | 0.00132
298.15 K | 0.01 | 0.00783 | 0.00071 | 0.0013 | 0.00093 | 0.00172
303.15 K | 0.0118 | 0.00946 | 0.00091 | 0.00163 | 0.00128 | 0.00208
308.15 K | 0.0138 | 0.0111 | 0.00127 | 0.00203 | 0.0017 | 0.00283
313.15 K | 0.016 | 0.0133 | 0.00159 | 0.00271 | 0.00221 | 0.00373
318.15 K | 0.019 | 0.0155 | 0.00195 | 0.00355 | 0.00298 | 0.00452
323.15 K | 0.0224 | 0.0182 | 0.00263 | 0.00458 | 0.00391 | 0.0059
328.15 K | 0.0264 | – | 0.00343 | 0.00573 | 0.00526 | 0.00759
333.15 K | 0.031 | – | 0.00442 | 0.00772 | 0.00667 | 0.00977
